{
  "source": "patent US20250263370A1",
  "about": "(Tay Therapeutics Limited, priority 2022, published 2025)",
  "key": {"[1]": {"tested_on": "Col1a1, TGF-b1, MCP-1, IL-1b, IL-6, IL-17, TNF-a, and Timp1", "test": "Tissue biomarker mRNA by RT-PCR in ligated kidney of UUO rats", "type": "in vivo, rat", "source_text": "Serum for blood biochemistry analysis was collected into centrifuge tubes without coagulant four hours after final dosing. Blood plasma samples from group 3 was collected into tubes with K2EDTA four hours after final dosing. At the conclusion of the study (end of the 14-day period), animals were euthanized. Kidney tissue was collected four hours after final dosing. Ligated side kidney was divided into three copies ⅓ fix into 10% formalin for H&E analysis, ⅓ into RNA for PCR analysis of tissue biomarkers Col1a1, TGF-b1, MCP-1, IL-1b, IL-6, IL-17, TNF-a, and Timp1, and ⅓ for hydroxyproline assay analyzed by ELISA. RNA was extracted from tissue using the RNeasy mini kit (Qiagen). RNA concentration was measured using a NanoDrop One Spectrophotometer (ThermoFisher) and converted to cDNA using a High-Capacity RNA-to-cDNA kit (Invitrogen). RT-PCR was performed to measure levels of mRNA of different targets using TaqMan® Gene Expression Master Mix and TaqMan® probe/primer sets on a QuantStudio 6, Real-Time PCR System (ThermoFisher). Fold change in target gene expression was determined using the ΔΔCt method."}, "[2]": {"test": "Sprague-Dawley rat pharmacokinetics, IV and PO cassette dosing", "type": "in vivo", "how_it_was_run": "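Male Sprague-Dawley rats (2 per arm) given up to 5 compounds in cassette, 1 mg/kg IV and 5 mg/kg PO, formulated in 5% DMSO/40% PEG-400/55% water. Plasma from serial blood samples was acetonitrile-precipitated and analysed by LC/MS/MS against matrix-matched standard curves.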"}},
  "note": "Several values for one entry are separate records, joined by “and”; a condition that tells them apart may be missing. Equal values may be shown once.",
  "data": [
    {"smiles": "CNC(=O)c1[nH]c(C(=O)NC2CCC2)cc1O[C@@H](C)c1ccccc1", "note": "(stereo in doubt) [Example 101, N^5-cyclobutyl-N^2-methyl-3-(1-phenylethoxy)-1H-pyrrole-2,5-dicarboxamide]", "values": [
      {"measurement": "Col1a1 tissue RNA level relative to UUO + vehicle", "setting": "[1]; 30 mg/kg BID, kidney", "result": "reduced levels"},
      {"measurement": "IL-1b tissue RNA level relative to UUO + vehicle", "setting": "[1]; 30 mg/kg BID, kidney", "result": "reduced levels"},
      {"measurement": "IL-6 tissue RNA level relative to UUO + vehicle", "setting": "[1]; 30 mg/kg BID, kidney", "result": "reduced levels"},
      {"measurement": "MCP-1 tissue RNA level relative to UUO + vehicle", "setting": "[1]; 30 mg/kg BID, kidney", "result": "reduced levels"},
      {"measurement": "TGF-b1 tissue RNA level relative to UUO + vehicle", "setting": "[1]; 30 mg/kg BID, kidney", "result": "reduced levels"},
      {"measurement": "Timp1 tissue RNA level relative to UUO + vehicle", "setting": "[1]; 30 mg/kg BID, kidney", "result": "reduced levels"},
      {"measurement": "expression of IL-17 relative to UUO + vehicle", "setting": "[1]; 30 mg/kg BID, kidney", "result": "limited effect"},
      {"measurement": "expression of TNF-α relative to UUO + vehicle", "setting": "[1]; 30 mg/kg BID, kidney", "result": "limited effect"},
      {"measurement": "Col1a1 RNA level, Normalized Fold Change", "setting": "[1]; 30 mg/kg, individual animals", "result": "0.67 and 0.33 and 0.21 and 0.55 and 0.28 and 0.41 and 0.86 and 0.69"},
      {"measurement": "IL-1b RNA level, Normalized Fold Change", "setting": "[1]; 30 mg/kg, individual animals", "result": "0.43 and 0.18 and 0.29 and 0.69 and 0.55 and 0.27 and 0.56 and 0.67"},
      {"measurement": "IL-6 RNA level, Normalized Fold Change", "setting": "[1]; 30 mg/kg, individual animals", "result": "0.06 and 0.05 and 0.03 and 0.33 and 0.12 (2×) and 0.26 and 0.07"},
      {"measurement": "IL-17 RNA level, Normalized Fold Change", "setting": "[1]; 30 mg/kg, individual animals", "result": "0.79 and 0.22 and 0.24 and 2.09 and 1.81 and 0.54 and 0.70 and 0.94"},
      {"measurement": "MCP-1 RNA level, Normalized Fold Change", "setting": "[1]; 30 mg/kg, individual animals", "result": "0.34 and 0.26 and 0.32 and 0.53 and 0.42 and 0.27 and 0.68 and 0.61"},
      {"measurement": "TGF-b1 RNA level, Normalized Fold Change", "setting": "[1]; 30 mg/kg, individual animals", "result": "0.63 and 0.44 and 0.35 and 0.81 and 0.52 and 0.50 and 0.90 and 0.85"},
      {"measurement": "TNF-a RNA level, Normalized Fold Change", "setting": "[1]; 30 mg/kg, individual animals", "result": "0.90 and 0.48 and 0.32 and 1.53 and 1.00 and 0.69 and 0.94 and 1.55"},
      {"measurement": "Timp1 RNA level, Normalized Fold Change", "setting": "[1]; 30 mg/kg, individual animals", "result": "0.65 and 0.41 and 0.44 and 0.71 and 0.54 and 0.56 and 0.94 and 0.97"},
      {"measurement": "Col1a1 RNA level, Normalized Fold Change (Mean + SEM)", "setting": "[1]; group mean, N 8", "result": 0.50},
      {"measurement": "IL-1b RNA level, Normalized Fold Change (Mean + SEM)", "setting": "[1]; group mean, N 8", "result": 0.46},
      {"measurement": "IL-6 RNA level, Normalized Fold Change (Mean + SEM)", "setting": "[1]; group mean, N 8", "result": 0.13},
      {"measurement": "IL-17 RNA level, Normalized Fold Change (Mean + SEM)", "setting": "[1]; group mean, N 8", "result": 0.92},
      {"measurement": "MCP-1 RNA level, Normalized Fold Change (Mean + SEM)", "setting": "[1]; group mean, N 8", "result": 0.43},
      {"measurement": "TGF-b1 RNA level, Normalized Fold Change (Mean + SEM)", "setting": "[1]; group mean, N 8", "result": 0.63},
      {"measurement": "TNF-a RNA level, Normalized Fold Change (Mean + SEM)", "setting": "[1]; group mean, N 8", "result": 0.93},
      {"measurement": "Timp1 RNA level, Normalized Fold Change (Mean + SEM)", "setting": "[1]; group mean, N 8", "result": 0.65},
      {"measurement": "PO F", "setting": "[2]; PO 5 mg/kg, Method 1", "result": 66, "unit": "%"},
      {"measurement": "half-life", "setting": "[2]; male, Sprague-Dawley, rat, plasma, iv, 1 mg/kg, IV 1 mg/kg, Method 1, read-out: IV T1/2 (converted)", "result": 54, "unit": "min"}
    ]}
  ]
}
